# From the supplement of paper PMC11451515
# Key:
# Details in all cases: 48 h
# [1] = test system: NOMO1; experiment: cell viability relative to DMSO control; higher = less cytotoxic
# Method in brief: (§1)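 In 1536-well plates, 5 μl of leukemia cells were seeded per well: 500 cells/well for NOMO1 or SEM and 1000 cells/well for P12-Ichikawa. Each line had first been adapted for at least four passages in each medium. Library compounds in DMSO were pin-dosed at 11 threefold concentrations between 47 μM and 0.79 nM, and CellTiter-Glo One luminescence was read after 48 h at 37°C. Viability is a per-plate percentage relative to DMSO wells, with cell-free wells as background.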
# [2] = test system: P12-Ichikawa; experiment: as above
# Method in brief: as §1
# [3] = test system: SEM cells; experiment: as above
# Method in brief: as §1
# [4] = test system: NOMO1; experiment: AUC of viability dose-response curve (% viability x log10 dose units); higher = less sensitive
# Method in brief: (§2)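 Leukemia cells adapted to each medium were seeded in 1536-well plates (500 or 1000 cells/well). They were dosed with library compounds in DMSO at 11 threefold doses, 47 μM to 0.79 nM, for 48 h at 37°C. CellTiter-Glo One luminescence was normalised per plate to DMSO and cell-free wells. Area under the curve was integrated by trapezoidal rule over log10 doses on a four-parameter log-logistic fit; curves exceeding full viability were scaled and curves failing quality control removed.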
# [5] = test system: P12-Ichikawa; experiment: as above
# Method in brief: as §2
# [6] = test system: SEM cells; experiment: as above
# Method in brief: as §2
# [7] = HPLM + 10% dialyzed FBS, 0.000781 µM
# [8] = HPLM + 10% dialyzed FBS, 0.00234 µM
# [9] = HPLM + 10% dialyzed FBS, 0.00702 µM
# [10] = HPLM + 10% dialyzed FBS, 0.0211 µM
# [11] = HPLM + 10% dialyzed FBS, 0.0632 µM
# [12] = HPLM + 10% dialyzed FBS, 0.19 µM
# [13] = HPLM + 10% dialyzed FBS, 0.569 µM
# [14] = HPLM + 10% dialyzed FBS, 1.71 µM
# [15] = HPLM + 10% dialyzed FBS, 5.12 µM
# [16] = HPLM + 10% dialyzed FBS, 15.4 µM
# [17] = HPLM + 10% dialyzed FBS, 46.1 µM
# [18] = RPMI 5 mM glucose + 10% FBS, 0.000781 µM
# [19] = RPMI 5 mM glucose + 10% FBS, 0.00234 µM
# [20] = RPMI 5 mM glucose + 10% FBS, 0.00702 µM
# [21] = RPMI 5 mM glucose + 10% FBS, 0.0211 µM
# [22] = RPMI 5 mM glucose + 10% FBS, 0.0632 µM
# [23] = RPMI 5 mM glucose + 10% FBS, 0.19 µM
# [24] = RPMI 5 mM glucose + 10% FBS, 0.569 µM
# [25] = RPMI 5 mM glucose + 10% FBS, 1.71 µM
# [26] = RPMI 5 mM glucose + 10% FBS, 5.12 µM
# [27] = RPMI 5 mM glucose + 10% FBS, 15.4 µM
# [28] = RPMI 5 mM glucose + 10% FBS, 46.1 µM
# [29] = RPMI 5 mM glucose + 10% dialyzed FBS, 0.000781 µM
# [30] = RPMI 5 mM glucose + 10% dialyzed FBS, 0.00234 µM
# [31] = RPMI 5 mM glucose + 10% dialyzed FBS, 0.00702 µM
# [32] = RPMI 5 mM glucose + 10% dialyzed FBS, 0.0211 µM
# [33] = RPMI 5 mM glucose + 10% dialyzed FBS, 0.0632 µM
# [34] = RPMI 5 mM glucose + 10% dialyzed FBS, 0.19 µM
# [35] = RPMI 5 mM glucose + 10% dialyzed FBS, 0.569 µM
# [36] = RPMI 5 mM glucose + 10% dialyzed FBS, 1.71 µM
# [37] = RPMI 5 mM glucose + 10% dialyzed FBS, 5.12 µM
# [38] = RPMI 5 mM glucose + 10% dialyzed FBS, 15.4 µM
# [39] = RPMI 5 mM glucose + 10% dialyzed FBS, 46.1 µM
# [40] = RPMI 5 mM glucose + 10% dialyzed FBS
smiles,measurement,setting,value
CNCC(O)c1ccc(O)cc1 (stereo not drawn),cell viability,[1]; [7],114%
same,cell viability,[1]; [8],106%
same,cell viability,[1]; [9],116%
same,cell viability,[1]; [10],103%
same,cell viability,[1]; [11],116%
same,cell viability,[1]; [12],125%
same,cell viability,[1]; [13],129%
same,cell viability,[1]; [14],109%
same,cell viability,[1]; [15],128%
same,cell viability,[1]; [16],113%
same,cell viability,[1]; [17],134%
same,cell viability,[1]; [18],96.7%
same,cell viability,[1]; [19],104%
same,cell viability,[1]; [20],118%
same,cell viability,[1]; [21],116%
same,cell viability,[1]; [22],112%
same,cell viability,[1]; [23],103%
same,cell viability,[1]; [24],125%
same,cell viability,[1]; [25],118%
same,cell viability,[1]; [26],127%
same,cell viability,[1]; [27],120%
same,cell viability,[1]; [28],121%
same,cell viability,[1]; [29],106%
same,cell viability,[1]; [30],122%
same,cell viability,[1]; [31],109%
same,cell viability,[1]; [32],119%
same,cell viability,[1]; [33],104%
same,cell viability,[1]; [34],118%
same,cell viability,[1]; [35],108%
same,cell viability,[1]; [36],113%
same,cell viability,[1]; [37],125%
same,cell viability,[1]; [38],130%
same,cell viability,[1]; [39],120%
same,cell viability,[2]; [7],103%
same,cell viability,[2]; [8],106%
same,cell viability,[2]; [9],113%
same,cell viability,[2]; [10],113%
same,cell viability,[2]; [11],124%
same,cell viability,[2]; [12],122%
same,cell viability,[2]; [13],118%
same,cell viability,[2]; [14],118%
same,cell viability,[2]; [15],120%
same,cell viability,[2]; [16],119%
same,cell viability,[2]; [17],120%
same,cell viability,[2]; [18],99.8%
same,cell viability,[2]; [19],116%
same,cell viability,[2]; [20],114%
same,cell viability,[2]; [21],121%
same,cell viability,[2]; [22],124%
same,cell viability,[2]; [23],127%
same,cell viability,[2]; [24],122%
same,cell viability,[2]; [25],129%
same,cell viability,[2]; [26],123%
same,cell viability,[2]; [27],131%
same,cell viability,[2]; [28],107%
same,cell viability,[2]; [29],99.4%
same,cell viability,[2]; [30],110%
same,cell viability,[2]; [31],115%
same,cell viability,[2]; [32],119%
same,cell viability,[2]; [33],114%
same,cell viability,[2]; [34],113%
same,cell viability,[2]; [35],118%
same,cell viability,[2]; [36],113%
same,cell viability,[2]; [37],123%
same,cell viability,[2]; [38],121%
same,cell viability,[2]; [39],114%
same,cell viability,[3]; [7],59.8%
same,cell viability,[3]; [8],87.8%
same,cell viability,[3]; [9],85.6%
same,cell viability,[3]; [10],80.2%
same,cell viability,[3]; [11],90.1%
same,cell viability,[3]; [12],95.6%
same,cell viability,[3]; [13],87.9%
same,cell viability,[3]; [14],86.8%
same,cell viability,[3]; [15],95.3%
same,cell viability,[3]; [16],99.5%
same,cell viability,[3]; [17],93.6%
same,cell viability,[3]; [18],96.6%
same,cell viability,[3]; [19],95.4%
same,cell viability,[3]; [20],128%
same,cell viability,[3]; [21],103%
same,cell viability,[3]; [22],112%
same,cell viability,[3]; [23],105%
same,cell viability,[3]; [24],113%
same,cell viability,[3]; [25],104%
same,cell viability,[3]; [26],122%
same,cell viability,[3]; [27],114%
same,cell viability,[3]; [28],111%
same,cell viability,[3]; [29],75.6%
same,cell viability,[3]; [30],97.3%
same,cell viability,[3]; [31],85.7%
same,cell viability,[3]; [32],93.5%
same,cell viability,[3]; [33],101%
same,cell viability,[3]; [34],108%
same,cell viability,[3]; [35],100%
same,cell viability,[3]; [36],99.4%
same,cell viability,[3]; [37],114%
same,cell viability,[3]; [38],99.8%
same,cell viability,[3]; [39],87.1%
same,AUC of viability dose-response curve,[4]; HPLM + 10% dialyzed FBS,446
same,AUC of viability dose-response curve,[4]; RPMI 5 mM glucose + 10% FBS,455
same,AUC of viability dose-response curve,[4]; [40],441
same,AUC of viability dose-response curve,[5]; HPLM + 10% dialyzed FBS,464
same,AUC of viability dose-response curve,[5]; RPMI 5 mM glucose + 10% FBS,466
same,AUC of viability dose-response curve,[5]; [40],469
same,AUC of viability dose-response curve,[6]; HPLM + 10% dialyzed FBS,423
same,AUC of viability dose-response curve,[6]; RPMI 5 mM glucose + 10% FBS,452
same,AUC of viability dose-response curve,[6]; [40],459
COC(c1ccccc1)(c1ccccc1)[C@H](Oc1nc(C)cc(C)n1)C(=O)O,cell viability,[3]; [29],115%
same,cell viability,[3]; [30],134%
same,cell viability,[3]; [31],122%
same,cell viability,[3]; [32],139%
same,cell viability,[3]; [33],177%
same,cell viability,[3]; [34],160%
same,cell viability,[3]; [35],167%
same,cell viability,[3]; [36],152%
same,cell viability,[3]; [37],140%
same,cell viability,[3]; [38],133%
same,cell viability,[3]; [39],85.1%
same,AUC of viability dose-response curve,[4]; HPLM + 10% dialyzed FBS,444
same,AUC of viability dose-response curve,[4]; RPMI 5 mM glucose + 10% FBS,452
same,AUC of viability dose-response curve,[4]; [40],467
same,AUC of viability dose-response curve,[5]; HPLM + 10% dialyzed FBS,464
same,AUC of viability dose-response curve,[5]; RPMI 5 mM glucose + 10% FBS,465
same,AUC of viability dose-response curve,[5]; [40],464
same,AUC of viability dose-response curve,[6]; HPLM + 10% dialyzed FBS,462
same,AUC of viability dose-response curve,[6]; RPMI 5 mM glucose + 10% FBS,466
same,AUC of viability dose-response curve,[6]; [40],463
CCNC(=O)C[C@H]1/N=C(/C2=CC=C(Cl)C=C2)C3=CC(=CC=C3[N]4C(=NN=C14)C)OC,cell viability,[3]; [29],122%
same,cell viability,[3]; [30],124%
same,cell viability,[3]; [31],138%
same,cell viability,[3]; [32],119%
same,cell viability,[3]; [33],141%
same,cell viability,[3]; [34],117%
same,cell viability,[3]; [35],155%
same,cell viability,[3]; [36],122%
same,cell viability,[3]; [37],108%
same,cell viability,[3]; [38],99.4%
same,cell viability,[3]; [39],22.2%
same,AUC of viability dose-response curve,[4]; HPLM + 10% dialyzed FBS,465
same,AUC of viability dose-response curve,[4]; RPMI 5 mM glucose + 10% FBS,461
same,AUC of viability dose-response curve,[4]; [40],445
same,AUC of viability dose-response curve,[5]; HPLM + 10% dialyzed FBS,464
same,AUC of viability dose-response curve,[5]; RPMI 5 mM glucose + 10% FBS,460
same,AUC of viability dose-response curve,[5]; [40],462
same,AUC of viability dose-response curve,[6]; HPLM + 10% dialyzed FBS,442
same,AUC of viability dose-response curve,[6]; RPMI 5 mM glucose + 10% FBS,450
same,AUC of viability dose-response curve,[6]; [40],440
CCn1cc(-c2ccnc3[nH]c(-c4cccc(CN(C)C)c4)cc23)c(-c2ccc(NC(=O)N(C)C)cc2)n1,cell viability,[3]; [7],123%
same,cell viability,[3]; [8],112%
same,cell viability,[3]; [9],135%
same,cell viability,[3]; [10],138%
same,cell viability,[3]; [11],79.6%
same,cell viability,[3]; [12],52.5%
same,cell viability,[3]; [13],44.8%
same,cell viability,[3]; [14],48.9%
same,cell viability,[3]; [15],41.6%
same,cell viability,[3]; [16],19.4%
same,cell viability,[3]; [17],9.33%
same,AUC of viability dose-response curve,[4]; HPLM + 10% dialyzed FBS,375
same,AUC of viability dose-response curve,[4]; RPMI 5 mM glucose + 10% FBS,318
same,AUC of viability dose-response curve,[4]; [40],323
same,AUC of viability dose-response curve,[5]; HPLM + 10% dialyzed FBS,220
same,AUC of viability dose-response curve,[5]; RPMI 5 mM glucose + 10% FBS,234
same,AUC of viability dose-response curve,[5]; [40],252
same,AUC of viability dose-response curve,[6]; HPLM + 10% dialyzed FBS,271
same,AUC of viability dose-response curve,[6]; RPMI 5 mM glucose + 10% FBS,224
same,AUC of viability dose-response curve,[6]; [40],233
